Patent US20220031800A1, “PEPTIDES FOR TREATING NON-EXUDATIVE MACULAR DEGENERATION AND OTHER DISORDERS OF THE EYE” (Allegro Pharmaceuticals, LLC, priority 2019, published 2022)

Legend:
[1] = Trypan blue viability of human RPE cells (ARPE-19) exposed to hydrogen peroxide; format: cell-based; settings: human, ARPE-19 cells (human RPE cells); 100 μM H2O2 alone, 8 hours; read-out: Reduction of cell viability
Method: Purpose: Investigate cytoprotective properties of risuteganib in human RPE cells (ARPE-19) exposed to hydrogen peroxide, which is a reactive oxygen species that can induce cell death at elevated levels. Methods: ARPE-19 cells were cultured in laminin-coated trans-wells for 2 weeks to induce differentiation. Cells were then exposed to the experimental conditions: […]

primary human RPE cells [2] = test: Mitochondrial membrane potential (JC-1) in primary human RPE cells exposed to hydroquinone; format: cell-based; settings: HQ 125-180 uM, 3-4 hours
Method: (§1) Purpose: To determine if risuteganib protects against hydroquinone (HQ)-mediated cell injury, elevated ROS level and reduced mitochondrial membrane potential (Δψm) in cultured human RPE cells. Elevated ROS levels increase oxidative stress in the cells, leading to reduced cell health and cell death. Loss of ΔΨm is a marker for early cell death. Methods: Primary human RPE cells were seeded on collagen-coated 96-well plates in triplicates at 8K, 10K and […] cells/well, respectively. Cells reached 80% to 100% confluence 24 hours after plating, and confluent cells were then grown for an additional 4 or 5 days until growth was density arrested. On day 6 after plating, cells in the plate upper half were loaded with 20 μM CM-H2DCFDA (measures ROS level) and in the plate lower half with 10 μM JC-1 (measures Δψm) for 30 minutes at 37° C. […] For the ROS and Δψm assays, a fluorescence plate reader was used to quantify ROS production (490-nm excitation, 522-nm emission), and green monomer of JC-1 (490-nm excitation, 522-nm emission) and red JC-1 aggregate (535-nm excitation, 590-nm emission), respectively. […] The WST reagent was quantified with a plate reader at 440 nm and a reference wavelength at 690 nm. Data were normalized to untreated control as 100% and were expressed as the mean±SD.

primary human RPE cells [3] = test: ROS level (CM-H2DCFDA) in primary human RPE cells exposed to hydroquinone; format: cell-based; settings: HQ 125-180 uM, 3-4 hours
Method: as §1

primary human RPE cells [4] = test: WST-1 cell viability of primary human RPE cells exposed to hydroquinone; format: cell-based; settings: HQ 125-180 uM, 4 hours or 5 hours
Method: as §1

[5] = Trypan blue viability of primary mouse retinal neuron cells exposed to kainic acid; format: cell-based, CD1 mice; settings: CD1, mouse; 500 μM kainic acid alone, 8 hours; read-out: Reduction of cell viability
Method: (§2) Purpose: Investigate neuroprotective properties of risuteganib in primary mouse retinal neuron cells exposed to kainic acid, a neuroexcitatory compound that activates glutamate receptors, resulting in overstimulation and cell death.
Methods: Fresh retina were collected from CD1 mice and then mechanically dissociated with sterile Pasteur pipette. Cell suspensions were then dispensed into petri dish and incubated for 6 hours. Cells were then exposed to the experimental conditions: (1) untreated control, (2) 1.0 mg/mL risuteganib, (3) 500 μM kainic acid (KA), and (4) 1.0 mg/mL risuteganib for 24 hours before 500 μM kainic acid exposure. 8 hours after kainic acid treatment, dead and live cell numbers were measured using Trypan blue exclusion assay on a hemocytometer.

[6] = Trypan blue viability of primary mouse Müller cells exposed to kainic acid; format: cell-based, CD1 mice; settings: CD1, mouse; 500 μM kainic acid alone, 48 hours; read-out: Reduction of Muller cell viability
Text: as §2, with “Müller” for “retinal neuron”, “death. Retinal Müller cells support normal functions of neurons and their dysregulation can leads to loss of homeostasis and neuronal cell death.” for “death.”
Methods: Fresh retina were collected from CD1 mice and then mechanically dissociated with sterile Pasteur pipette into small aggregates and seeded into 35 mm culture dishes. All cultures were first left unchanged for 5-6 days and then replenished every 3-4 days. When the cell growth had reached around 80% confluency, retinal aggregates and debris were removed by media washes to form a purified cell monolayer. Cells were then exposed to the experimental conditions: (1) untreated control, (2) 1.0 mg/mL risuteganib, (3) 500 μM kainic acid (KA), and (4) 1.0 mg/mL risuteganib for 24 hours before 500 μM kainic acid exposure. 48 hours after kainic acid treatment, dead and live cell numbers were measured using Trypan blue exclusion assay on a hemocytometer.

[7] = test system: neovascularization in mice (CNV); settings: reproduced from US 2019/0062371; cited from earlier work
[8] = test system: human retinal Müller cells (MIO-M1); test: Reactive oxygen species level in human Müller cells (MIO-M1); format: cell-based; settings: 1× concentration (clinical dose), 24 hours
Method: Purpose: To determine the effects of risuteganib and anti-VEGF drugs on reactive oxygen species (ROS) levels in cultured human retinal Müller cells (MIO-M1). Elevated ROS levels can disrupt normal cellular functions, leading to reduced cell health and possible cell death.
Methods: The immortalized human retinal Müller cell line (MIO-M1) was obtained from the Department of Cell Biology of the University College, London. Cells were cultured in Dulbecco's Modified Eagle's Medium (DMEM) and plated in 24-well plates for 24 hours before treatment with 1× concentration of 1 mg/50 μL ALG-1001, ranibizumab, bevacizumab, or aflibercept. Dosage was based on clinical dose of each compound. The experiments were repeated 3 times with 6 replicates each. After 24 hours drug treatment, ROS level was measured using the fluorescent dye 2′,7′-dichlorodihydrofluorescein diacetate. The signals were read using the Biotek Synergy HT plate reader with EX filter in 482 nm and EM filter in 520 nm. Results were normalized to untreated control as 100%. Statistical analysis was performed in GraphPad Prism software program.

[9] = test system: human retinal Müller cells (MIO-M1); test: Mitochondrial membrane potential (JC-1) in human Müller cells (MIO-M1); format: cell-based; settings: 1× concentration (clinical dose), 24 hours, vs untreated control
Method: Purpose: To determine the effects of risuteganib on the mitochondrial membrane potential (ΔΨm) in cultured human retinal Müller cells (MIO-M1). Loss of ΔΨm is a marker for early cell death.
Methods: The immortalized human retinal Müller cell line (MIO-M1) was obtained from the Department of Cell Biology of the University College, London. Cells were cultured in Dulbecco's Modified Eagle's Medium (DMEM) and plated in 24-well plates for 24 hours before treatment with 1× concentration of 1 mg/50 μL risuteganib, ranibizumab, bevacizumab, or aflibercept. Dosage was based on clinical dose of each compound. The experiments were repeated 3 times with 6 replicates each. After 24 hours drug treatment, the ΔΨm was measured using the JC-1 kit, a cationic dye that fluoresces red within the mitochondria of healthy, live cells. In the stressed or apoptotic cells, the mitochondrial membrane potential collapses and the cationic dye fluoresces green. First, cells were rinsed with fresh media and then incubated with the JC-1 reagent for 15 minutes at 37 degrees C. The dyes were then removed, and phosphate buffered saline was added to each well. The Red fluorescence (live cells) was read at EX 550 nm and EM 600 nm. The Green fluorescence (apoptotic cells) was read at EX 483 nm and EM 535 nm. The changes in ΔΨm were calculated by the ratio of red to green fluorescence. […]

[10] = test system: human retinal Müller cells (MIO-M1); test: MTT cell viability of human Müller cells (MIO-M1); format: cell-based; settings: 1× concentration (clinical dose), 24 hours, vs untreated (FIG. 18)
Method: Purpose: To determine the effects of risuteganib and anti-VEGF drugs on the cell viability of cultured human retinal Müller cells (MIO-M1).
Methods: The immortalized human retinal Müller cell line (MIO-M1) was obtained from the Department of Cell Biology of the University College, London. Cells were cultured in Dulbecco's Modified Eagle's Medium (DMEM) and plated in 96-well plates for 24 hours before treatment with 0.5×, 1× or 2× concentrations of 1 mg/50 μL risuteganib, or 1× of ranibizumab, bevacizumab or aflibercept. Dosage was based on clinical dose of each compound. The experiments were repeated 3 times with 7-8 replicates each. After 24 hours of drug treatment, MTT NAD(P)H-dependent colorimetric assay was used to assess the number of viable cells present in the cultures. Absorbance ratios were normalized to untreated control as 100%. Statistical analysis was performed in GraphPad Prism software program.

OO [H2O2, hydrogen peroxide, reference compound]
cytotoxicity at 8 h, 100 μM [1]: 22%

Oc1ccc(O)cc1 [HQ, hydroquinone, reference compound]
Change in Δψm compared to untreated cells (primary human RPE cells [2]): −53% | Increase in ROS levels compared to untreated cells (primary human RPE cells [3]): 78% | Change in cell viability compared to untreated cells (primary human RPE cells [4]): −82%

C=C(C)[C@H]1CN[C@H](C(=O)O)[C@H]1CC(=O)O [kainic acid, reference compound]
cytotoxicity at 8 h, 500 μM [5]: 42% | cytotoxicity at 48 h, 500 μM [6]: 32%

R - G - Cys(acid)•TFA [Test Compound 1]
Activity At Dose Tested [7]: Active | Mean % Reduction of Retinal Neovascularization In ROP Model [7]: 49 - FIG. 11%

R- G - Cys(acid)•Acetate [Test Compound 2]
Activity At Dose Tested [7]: Active | Mean % Reduction of Retinal Neovascularization In ROP Model [7]: 56 - FIG. 11%

aflibercept [reference compound]
Change in ROS level compared to untreated control [8]: 29% | Mitochondrial membrane potential (ΔΨm), in words [9]: decreased ΔΨm | Cell viability (MTT), in words [10]: decreased cell viability

bevacizumab [reference compound]
Change in ROS level compared to untreated control [8]: 24% | Cell viability (MTT), in words [10]: decreased cell viability

B1: ranibizumab (antibody, chains of the INN, looked up, V domains shown)
VH: EVQLVESGGGLVQPGGSLRLSCAASGYDFTHYGMNWVRQAPGKGLEWVGWINTYTGEPTYAADFKRRFTFSLDTSKSTAYLQMNSLRAEDTAVYYCAKYPYYYGTSHWYFDVWGQGTLVTVSS
VL: DIQLTQSPSSLSASVGDRVTITCSASQDISNYLNWYQQKPGKAPKVLIYFTSSLHSGVPSRFSGSGSGTDFTLTISSLQPEDFATYYCQQYSTVPWTFGQGTKVEIK
notes: anti-VEGF agent
Change in ROS level compared to untreated control [8]: 37% | Cell viability (MTT), in words [10]: decreased cell viability
